Reference: patent publication US8252532B2 (University of Connecticut, priority 2006, dated 2012)

Key:
[1] = tested on: Ovcar-3 cells; experiment: Apoptotic nuclei in Ovcar-3 cells (DAPI staining); assay type: cell-based, human; details: for effect on CDDP-induced apoptosis: simultaneous treatment with CDDP
Description: In order to assess the effects of CDDP, P4 and PGRMC1's role in regulating the viability of ovarian cancer cells, Ovcar-3 cells were used. Ovcar-3 cells were maintained in culture as described by Kim et al (23). Briefly, Ovcar-3 cells were cultured in RPMI-1640 medium (Invitrogen, Grand Island, N.Y.) supplemented with 10% fetal bovine serum (HyClone, Logan, Utah), 100 U/ml penicillin G, 100 ug/ml streptomycin (Invitrogen, Grand Island, N.Y.), at 37° C. in a humidified atmosphere of 5% CO2 incubator. The Ovcar-3 cells were cultured for 72 hours before each experiment.
PGRMC1 siRNA treatment was used to deplete PGRMC1 levels (28). In this protocol, PGRMC1 depletion was performed by transfecting PGRMC1 siRNA using siPORT NeoFX transfection protocol outlined by Ambion. Studies were conducted in which either scramble (control) siRNA (Cat#: AM4611) or one of three pre-designed human PGRMC1 siRNAs (Ambion siRNA ID#: 18430, 18340, 18248) were transfected at a concentration of 30 nM. Levels of PGRMC1 mRNA and protein were assessed by real-time PCR and western blot, respectively as previously described. In addition and immunocytochemical analysis confirmed that PGRMC1 siRNA (ID#: 18248) was an effective PGRMC1 siRNA. This siRNA targeted Exon 1 of PGRMC1 (forward, 5′-[…]tt and reverse, 5′-[…]tt). Based on this, Ovcar-3 cells were cultured for 3 days and then treated for 3 days with either scramble or PGRMC1 siRNA (ID#: 18248). The cells were then treated for 24 h with CDDP (15 μM) and P4 (1 μM) and observed apoptosis as described below.
Finally, a blocking antibody study was conducted as previously described (25). Ovcar-3 were plated and cultured for 3 days as previously described. The cells were then washed and cultured for 24 h with serum-supplemented containing CDDP (15 μM) and P4 (1 μM) and either rabbit IgG (20 μg/ml) or the antibody to PGRMC1 (20 μg/ml). After culture the cells were rinsed in Krebs/Hepes buffer and stained to detect apoptotic nuclei as described below.
Regardless of the experimental design, in situ DNA staining was used to identify apoptotic nuclei by adding DAPI directly to the culture medium at a final concentration of 2 μg/ml. The cultures were incubated for 10 min at 37° C. in the dark. After staining, the cells were observed under epi-fluorescent optics. Under these conditions only cells with condensed or fragmented nuclei were stained intensely with DAPI. The DAPI-stained cells also stained with YOPRO-1, a well-known nuclear stain that identifies apoptotic cells (19, 25, 28). These cells were considered to be apoptotic (25). At least 100 cells/culture well were counted and the percentage of apoptotic nuclei in each well determined. For the data shown in FIGS. 12 and 15, cells were selected randomly. In FIG. 6 the apoptotic status (i.e. DAPI staining; blue fluorescence) was determined for 100 transfected cells per well as indicated by their GFP (i.e. green) fluorescence.

[2] = tested on: human granulosa/luteal cells; experiment: Apoptotic nuclei in human granulosa/luteal cells after serum withdrawal (TUNEL, in situ DNA staining); assay type: cell-based
Description: After the oocytes were removed, follicular aspirates were pooled and centrifuged at 250×g for 10 minutes. The cell pellet was resuspended in serum-free culture medium, layered on HISTOPAQUE-1077 and centrifuged for 30 minutes at 400×g. After centrifugation, the opaque interface containing the granulosa/luteal cells was carefully aspirated and transferred into a 15 ml sterile conical centrifuge tube. The cells were then washed by resuspending the cells in 12 ml of PBS and centrifuging them at 250×g for 10 minutes. This was repeated two additional times. The cell pellet was then resuspended in 1 ml of 0.25% trypsin-EDTA solution and incubated for 5 minutes to dissociate the cells. After trypsinization, 5 ml of serum-supplemented medium was added and the cells were centrifuged at 250×g for 10 minutes. The cells were then resuspended in serum-supplemented medium, counted in a hemacytometer and resuspended to yield a final concentration 1 million cells/ml.
Plastic lab-tek slides (BD Bioscience, Bedford, Mass.), which had been previously coated with Growth Factor Reduced Matrigel Matrix (BD Bioscience, Bedford, Mass.), were plated at about 60,000 cells per well in 0.5 ml of serum-supplemented medium with 2 U/ml (IU) of hCG. The medium was changed after 24 hours to remove any remaining blood cells or non-attached granulosa/luteal cells and the cultures continued for two additional days. The cultures were then subjected to the various experimental treatments as outlined below.
Both TUNEL and in situ DNA staining were used to identify apoptotic nuclei. For the TUNEL assay human granulosa/luteal cells were cultured for 5 hours in serum-free medium and then fixed in 10% formalin. The cells were stained using the Apoptag Peroxidase In Situ kit staining according to manufacture's instructions (Chemicon, Temecula, Calif.). In situ DNA staining was done by adding hydroethidine directly to the culture medium at a final concentration of 3.5 μg/ml. The cultures were incubated for 15 minutes at room temperature in the dark. After staining, the cells observed under epi-fluorescent optics. Under these conditions only cells with condensed or fragmented nuclei were stained intensely with hydroethidine. These cells were considered to be apoptotic in accordance with prior publications in the field. At least 100 cells/culture well were counted and the percentage of apoptotic nuclei in each well determined.
Human granulosa/luteal cells were plated on lab tek slides and cultured for three days as previously described. […] After culture the cells were raised in Krebs/Hepes buffer and stained to detect apoptotic nuclei as taught by Engmann et al., J. of Clinical Endocrinology and Metabolism 91(12): 4962-4968 (2006). One hundred cells in each chamber were counted and the percentage of apoptotic nuclei determined as previously described.

[3] = tested on: PGRMC1; experiment: PGRMC1 mRNA and protein levels in Ovcar-3 cells after siRNA (real-time PCR, western blot, immunocytochemistry); assay type: cell-based, human; details: 72 h treatment; vs scramble control
Description: Real Time PCR. Quantitative measurements of PGR and PGRMC1 mRNA were made on cDNA samples provided by OriGene. […] Primers were evaluated with NCBI blast to confirm product specificity and products were designed to cross intron/exon borders. Primers used were: PGR forward [NT] ID NO: 13) and reverse [NT] ID NO: 14) and PGRMC-1 forward [NT] ID NO: 15) and reverse [NT] ID NO: 16). Quantitative real time PCR was performed on the MyiQ Single-Color Real-Time PCR Detection System (Bio-Rad, Hercules, Calif.). Samples were resuspended in twenty-five μl of the iQ SyberGreen Supermix (Bio-Rad) containing appropriate primers. Relative gene expression was evaluated with Bio-Rad iQ5 software using the ΔCT method (24). Each gene was evaluated on two separate identical array plates, which were loaded with equal amounts of cDNA per well as described by the manufacturer. End products were also run on agarose gels to confirm product size. Immunohistochemistry and immunocytochemistry were also used to assess the localization of PGRMC1 in formalin-fixed paraffin-embedded tissue sections of ovarian cancers and Ovcar-3 cells, respectively. […] Levels of PGRMC1 mRNA and protein were assessed by real-time PCR and western blot, respectively as previously described. […]

## N.N.[Cl][Pt][Cl] [CDDP, cis-diamminedichloroplatinum(II)]
[1]; 10% fetal bovine serum, FIG. 12B
  percentage of cells that undergo apoptosis (dose dependence): dose-dependent increase
[1]; in the presence of serum, within 24 h
  percentage of cells in which apoptosis is induced: 40 to 60%

## CC#C[C@]1(O)CC[C@H]2[C@@H]3CCC4=CC(=O)CCC4=C3[C@@H](c3ccc(N(C)C)cc3)C[C@@]21C [RU486]
[2]; 25 and 50 μM doses of RU486
  percentage of apoptotic nuclei: greater than 70%

## CC(=O)[C@H]1CC[C@H]2[C@@H]3CCC4=CC(=O)CC[C@]4(C)[C@H]3CC[C@]12C [progesterone, 4-Pregnene-3,20-dione]
[2]; 1 μM progesterone, IgG or IgY control
  effect on apoptosis due to serum-withdrawal in presence of IgG or IgY: suppressed apoptosis
[2]; all doses tested
  effect on apoptosis due to serum withdrawal: suppressed apoptosis
[2]; progesterone 1 μM, RU486 5 μM
  suppression of serum-withdrawal induced apoptosis in presence of RU486: still capable of suppressing serum-withdrawal induced apoptosis
[2]; progesterone 1 μM, RU486 25 and 50 μM
  ability to override the effect of RU486: could not override the effect of RU486
[2]; serum-free medium
  lowest effective dose suppressing apoptosis: 10 nM
[1]; addition of P4 to CDDP in serum
  reduction of the killing effect of CDDP: about 40%
[1]; serum withdrawal
  concentration of maximum effect on inhibition of apoptosis induced by serum withdrawal: ~1 µM
[1]; serum-free media for 5 h, p<0.05
  effect on rate of apoptosis in serum-free media: attenuated
[1]; 5 h of culture, p<0.05
  effect on CDDP-induced apoptosis: attenuated
[1]; 24 h of culture, p<0.05
  effect on CDDP-induced apoptosis: attenuated

## PGRMC1 siRNA (ID#: 18248): Ambion human PGRMC1 siRNA targeting Exon 1, nucleotides 365-386; SEQ ID NO: 7 and 8 (chain 1 GGUGUUCGAUGUGACCAAATT; chain 2 UUUGGUCACAUCGAACACCTT; chemistry not given here)
[3]
  PGRMC1 levels by immunocytochemical analysis: suppress PGRMC1 levels
[1]; PGRMC1 depleted with siRNA, CDDP and P4
  enhancement of the killing effect of CDDP in the presence of P4: ≥ 50%
[1]; siRNA 3 days, then 24 h CDDP (15 μM) and P4 (1 μM), p<0.05
  effect on P4's ability to inhibit CDDP-induced apoptosis: attenuated
